Legend:
[1] = Metal chelating activity assessed as Cu2+-compound complex formation by measuring binding constant in 0.1 M KNO3 at 25 degreeC
[2] = Metal chelating activity assessed as Zn2+-compound complex formation by measuring binding constant in 0.1 M KNO3 at 25 degreeC

log K [1]: 9.3
log K [2]: 7.6
SMILES: c1ccc(CNCc2ccccn2)nc1
